This is an account of results in patent US7700108B2, “Tumor antigen protein and use thereof” (Dainippon Sumitomo Pharma Co., Ltd., priority 2002, dated 2010).

Where no end group is shown, it is not given here.

The assay concerns TcOS2000cl-303 (CTL) with 293-EBNA-B55 cells (HLA-B* 5502). The assay is described as follows: LDH release assay: reactivity of CTL TcOS2000cl-303 to peptide-pulsed 293-EBNA-B55 cells. It is filed as cell-based, human. The note with it: 293-EBNA-B55 cells pulsed for 1 hour with peptide, co-cultured with TcOS2000cl-303; FIG. 5. The method, then: The first screening involved the following procedures. A pool of about 100 cDNA clones ([…]) was introduced into 293-EBNA-B55 cells having been plated into a 96-well microplate at 8×10^4 cells/well by lipofection method (Lipofectamine 2000, Invitrogen). Pools of respective cDNA clones used for introduction were stored separately. Twenty-four-hour later, TcOS2000cl-303 cells (8×10^4) were added and cultivation continued for another 24 hours, when the cultured supernatant was recovered. The reactivity of CTL was evaluated by determining LDH released in the supernatant by cytotoxic effects using LDH Cytotoxicity Detection Kit (TAKARA BIO). […] As a result, the reactivity was detected in 20 wells. […] As a result, the reactivity was detected in 4 wells.
Antigen peptide regions that bind to HLA-B* 5502 was identified from various peptides synthesized on the basis of the amino acid sequence (SEQ ID NO: 2) of tumor antigen protein PBF using as an index the reactivity of TcOS2000cl-303. 293-EBNA-B55A cells (8×10^4) were pulsed for 1 hour with a peptide having an amino acid sequence (Cys Thr Ala Cys Arg Trp Lys Ala Cys Gln Arg, SEQ ID NO: 46) corresponding to the amino acid sequence at position […] of SEQ ID NO: 2, co-cultured with TcOS2000cl-303 cells (4×10^4) and the reactivity was assessed by LDH release assay in the same manner as that described in Example 2. […]
(LDH in the medium is a marker of cell lysis.)

“CTACRWKACQR (cysteine pairing not given here) [SEQ ID NO: 46]”: the “reactivity of TcOS2000cl-303 (LDH release)” value is “reacted to peptide-pulsed 293-EBNA-B55 cells”.
